Inconclusive results are not listed. Activity calls are given as the source filed them. How the calls were made is not given here.
Target: S. cerevisiae eIF2B mutant, luciferase reporter luminescence
Experiment: eIF2B reporter inhibitors in yeast strains, dose response, S. cerevisiae, mutant, wild-type, luminescence, growth (AID 792)
[1] = measured here: mutant yeast growth
[2] = S. cerevisiae wild-type, luminescence

SMILES	IC50	IC50 [1] [µM]	IC50 [2] [µM]
Cc1ccc2c(c1)N(CC(=O)NCc1cccnc1)C(=O)CO2	> 100 µM (inactive)	> 100	
COC(=O)c1cc2occc2n1CC(=O)Nc1ccc(OC)c(OC)c1	> 100 µM (inactive)	> 100	
COc1ccc(OC)c(N/C(C)=C/C(=O)c2ccc(C)o2)c1	> 100 µM (inactive)	> 100	> 100
CCOC(=O)Cc1csc(NC(NC(=O)CC)(C(F)(F)F)C(F)(F)F)n1	> 100 µM (inactive)	> 100	
CCn1c(SCC(=O)Nc2oc(-c3ccccc3)c(-c3ccccc3)c2C#N)nnc1-c1ccco1	> 100 µM (inactive)	> 100	
CC1(C)Cc2c(c(=S)nc(-c3ccccc3)n2CCOCCO)CO1	> 100 µM (inactive)	> 100	
O=C(Nc1cccnc1)c1cc(-c2ccco2)on1	> 100 µM (inactive)	> 100	
COC(=O)NC(=C(Cl)Cl)S(=O)(=O)c1ccccc1	> 100 µM (inactive)	> 100	
Cc1ccc2c(c1)N(CC(=O)NC1CCC(C)CC1)C(=O)CO2 (configuration not stated)	> 100 µM (inactive)	> 100	
COc1ccc(OC)c(C2=Nn3c(nnc3-c3cccc(OC(C)C)c3)SC2)c1	> 100 µM (inactive)	> 100	
CCOc1ccc2cc(/C=C/C(=O)c3ccco3)c(Cl)nc2c1	> 100 µM (inactive)	> 100	
O=C(c1ccccc1)N1CCN(C(=O)c2ccncc2)CC1	> 100 µM (inactive)	> 100	
CCC(CC)c1nnc(NC(=O)c2cccc(S(=O)(=O)N3CCc4ccccc43)c2)s1	> 100 µM (inactive)	> 100	
COC(=O)CSc1nnc2n(-c3ccc(OC)cc3)c(=O)c3c4c(sc3n12)CCCCC4	> 100 µM (inactive)	87.1	
Cc1csc(NC(=O)NC2(C(F)(F)F)Oc3ccccc3O2)n1	> 100 µM (inactive)	> 100	
CNc1nc2ccccc2n1/N=C/c1cccc(OC)c1OC	> 100 µM (inactive)	> 100	
COC(=O)c1cc(O)c(OCc2ccccc2)c(O)c1	> 100 µM (inactive)	> 100	
O=C(Nc1ccc(Sc2ccc(Br)cc2)cc1)c1ccco1	> 100 µM (inactive)	> 100	
Oc1ccccc1C1=Nc2ncnn2C(c2ccc(F)cc2)C1 (configuration not stated)	> 100 µM (inactive)	> 100	
CCOC(=O)N1CCN(C(=O)COc2cc(=O)n(CC)c3ccccc23)CC1	> 100 µM (inactive)	> 100	
CCC(C)N(C(=O)COC(=O)c1[nH]c(C)c(C(C)=O)c1C)C1CCS(=O)(=O)C1 (configuration not stated)	> 100 µM (inactive)	> 100	
O=C(Nc1cccc(-c2cn3cccnc3n2)c1)c1ccc2c(c1)OCO2	> 100 µM (inactive)	> 100	
CCN1CCN(c2cc(C(C)(C)C)nc3c(-c4ccccc4)c(C)nn23)CC1	inactive	15.8	
c1ccc2c(c1)ncn2-c1ncnc2sc3c(c12)CCCC3	> 100 µM (inactive)	> 100	
O=C(Cn1nnc(-c2ccc(Cl)cc2)n1)NC1CC2CCC1C2 (configuration not stated)	> 100 µM (inactive)	> 100	
Cc1ccc2c(c1)C1CN(C)CCC1N2C(=O)Nc1cccc(Cl)c1 (configuration not stated)	> 100 µM (inactive)	> 100	
Cc1cc(C(=O)Nc2sc3c(c2C#N)CCC(C)C3)no1 (configuration not stated)	> 100 µM (inactive)	> 100	

SMILES	IC50	IC50 [1] [µM]	IC50 [2] [µM]
CC(NC(=O)CSc1nc2ccccc2c(=O)n1CCCO)c1ccccc1 (configuration not stated)	> 100 µM (inactive)	> 100	
COCC(=O)Nc1cc(OC)c(Cl)cc1OC	> 100 µM (inactive)	> 100	
COC(=O)c1nn(-c2ccc3c(c2)CCN3C(C)=O)cc1O	inactive	> 100	3.61
CCOCCCNC(=O)C1CCN(c2cc(C)nc3c(-c4ccc(OC)c(OC)c4)c(C)nn23)CC1	> 100 µM (inactive)	> 100	
Cc1ccc(Cn2nnnc2CN2CCC(O)(c3ccc(F)cc3)CC2)cc1	> 100 µM (inactive)	> 100	
Cc1nc2ccc(NC(=O)Cc3ccsc3)cc2s1	> 100 µM (inactive)	> 100	
CCCCN(C(=O)Cn1nnc2ccccc21)C(C(=O)NCCOC)c1ccccc1 (configuration not stated)	> 100 µM (inactive)	> 100	
CC1(C)Cc2c(sc3c2c(=N)n(Cc2ccco2)c(=O)n3Cc2ccc(F)cc2)CO1	> 100 µM (inactive)	> 100	
COc1cccc(Oc2cn[nH]c2-c2ccc(OC)cc2O)c1	inactive	40.8	44.1
c1ccc(-c2cc(-c3nn4c(-c5ccco5)nnc4s3)c3ccccc3n2)cc1	> 100 µM (inactive)	> 100	
Cc1cc(=O)[nH]c(SCc2cc(Cl)ccc2OC(F)F)n1	> 100 µM (inactive)	> 100	
CCCc1nc(-c2ccccc2O)n(-c2ccccc2)n1	> 100 µM (inactive)	> 100	
CN1CCc2nc(SCCOc3ccccc3)c(C#N)cc2C1	> 100 µM (inactive)	> 100	
COC(=O)c1nn2c(C(F)(F)F)cc(-c3ccc(Br)o3)nc2c1Br	> 100 µM (inactive)	> 100	
Cc1cc2n(n1)SC(Nc1ccccc1)N2 (configuration not stated)	> 100 µM (inactive)	> 100	
COc1ccc2c(c1)CCc1c(C(=O)NCc3cccnc3)noc1-2	> 100 µM (inactive)	> 100	
CCOC(=O)c1oc2cc(O)ccc2c(=O)c1-c1csc(C)n1	> 100 µM (inactive)	> 100	
Cc1ccc(CN(CC2CCCO2)C(=O)CN2C(=O)C(C(C)C)Oc3ccccc32)o1 (configuration not stated)	inactive	14.2	> 100
CCC(C)c1ccc(OCC(=O)O)cc1 (configuration not stated)	> 100 µM (inactive)	> 100	
Cc1cccc(N2C(=O)C3C4C=CC(C4)C3C2=O)c1 (configuration not stated)	> 100 µM (inactive)	> 100	
COc1ccc(C(=O)CSc2nnc(COc3ccccc3)n2Cc2ccco2)cc1	> 100 µM (inactive)	> 100	
Cc1cccc(Cn2cnc3c(nnn3Cc3ccc(Cl)cc3)c2=O)c1	> 100 µM (inactive)	> 100	
N#CC(C(=O)OC1CCCCC1)c1nc2ccccc2nc1N1CCOCC1 (configuration not stated)	> 100 µM (inactive)	> 100	
O=C(NCc1ccc(F)cc1)c1c(O)c2cccc3c2n(c1=O)CCC3	> 100 µM (inactive)	> 100	
COc1ccc(C2NC(=O)NC(C)=C2C(C)=O)cc1 (configuration not stated)	> 100 µM (inactive)	> 100	
Fc1ccc(Nc2nc(Oc3ccc4c(c3)OCO4)nc(N3CCOCC3)n2)c(F)c1	> 100 µM (inactive)	> 100	
CCn1cc(C(=O)NCC2CCCO2)c(=O)c2cc(S(=O)(=O)N3CCCCC3)ccc21 (configuration not stated)	> 100 µM (inactive)	> 100	

SMILES	IC50	IC50 [1] [µM]	IC50 [2] [µM]
COc1cccc(-n2c(C)nnc2SCC(=O)Nc2ccccc2N2CCOCC2)c1	> 100 µM (inactive)	> 100	
O=C(CCS(=O)CCC(=O)NCc1ccccc1)NCc1ccccc1	> 100 µM (inactive)	> 100	
C=CCN(C(=O)Cn1c(C(=O)OC)cc2oc(C)cc21)c1ccccc1	> 100 µM (inactive)	> 100	
Cc1[nH]c(=O)c(C#N)c2c1CSC(C)(C)C2	> 100 µM (inactive)	> 100	
Cc1cc(C(=O)Nc2ccccc2)oc1C	inactive	> 100	84.2
CC1(C)CC(=O)c2cc(OCC(=O)NCCCN3CCN(c4ccccc4F)CC3)ccc2O1	> 100 µM (inactive)	> 100	
Cc1ccc(NC(=O)c2ccc(S(=O)(=O)N3CCCCC3)cc2)cc1	> 100 µM (inactive)	> 100	
C=CCc1cccc(CNc2nc3ccccc3n2C(C)C)c1O	> 100 µM (inactive)	> 100	
CCCc1nc(SCC(=O)Nc2cc(C)on2)c2ccccc2n1	> 100 µM (inactive)	> 100	
Cc1csc(NC(=O)c2cccn2C)n1	inactive	> 100	16.4
CCOC(=O)C1=C(C)NC(C)=C(C(=O)OCC)C1C(=O)OCC(=O)N1CCc2ccccc2C1	> 100 µM (inactive)	> 100	
COc1cccc(-n2ccnc2SCC(=O)Nc2cc(OC)ccc2OC)c1	> 100 µM (inactive)	> 100	
CN(C)c1nc(N(C)C)nc(N(C#N)CCOc2ccccc2)n1	> 100 µM (inactive)	> 100	
C=CCOC(=O)C1=C(C)Nc2nc3ccccc3n2C1c1ccncc1 (configuration not stated)	> 100 µM (inactive)	> 100	
COc1cc(NS(=O)(=O)c2ccc3c(c2)n(C)c(=O)n3C)cc(OC)c1	> 100 µM (inactive)	> 100	
CCn1c(CNc2nc3ccccc3n2C(C)C)nc2ccccc21	> 100 µM (inactive)	> 100	
CC(C)CC[n+]1ccn(-c2nc3ccccc3nc2[N-]S(=O)(=O)c2ccccc2)c1	> 100 µM (inactive)	> 100	
COC(=O)[C@H](Cc1ccccc1)NC(=O)NCc1ccccc1OC	> 100 µM (inactive)	> 100	
CCOC(=O)c1ccc(N2C(=O)C=CC2=O)cc1	inactive	6.02	
CCN1CCN(c2cc(-c3ccccc3)nc3cc(-c4cccc(F)c4)nn23)CC1	inactive	8.98	6.87
Cc1cc(C(=O)Nc2ccccc2C(F)(F)F)no1	> 100 µM (inactive)	> 100	
O=C(Nc1ccccc1N1CCN(C(=O)c2ccccc2)CC1)c1cc2ccccc2o1	> 100 µM (inactive)	> 100	
Nn1c(CSc2nc3ccccc3o2)nnc1CSc1nc2ccccc2o1	> 100 µM (inactive)	> 100	
CCOC(=O)CSc1nncc2ccc(OC)c(OC)c12	> 100 µM (inactive)	> 100	
CSC1=NCCN1C(=O)c1cccc(C(F)(F)F)c1	> 100 µM (inactive)	> 100	
Cc1ccc(-c2nnc(COc3cccc(-n4cnnn4)c3)o2)cc1	> 100 µM (inactive)	> 100	

— PubChem BioAssay AID792 (PCMD, 2007)
